Reference: patent US20240166652A1, “MODULATORS OF THE INTEGRATED STRESS PATHWAY” (Calico Life Sciences LLC, priority 2017, published 2024)

System: ATF4 luciferase reporter in HEK293T cells
Test: ATF4-Luc assay (ATF4 luciferase reporter, tunicamycin-treated HEK293T cells)
Format: cell-based, human
Details: Homo sapiens, HEK-293T; HEK293T cells carrying the ATF4 luciferase reporter, 1 μg/mL tunicamycin, 7 hours

Structure (SMILES) | EC50
O=C(COc1ccnc(C(F)F)c1)NC12CC(NC(=O)COc3ccc(Cl)c(F)c3)(C1)C2 [Compound 378, 2-(4-chloro-3-fluorophenoxy)-N-[3-(2-{[2-(difluoromethyl)pyridin-4-yl]oxy}acetamido)bicyclo[1.1.1]pentan-1-yl]acetamide] | 0.01 to 0.05 µM
O=C(COc1ccc(F)c(F)c1)NC12CC(NC(=O)COc3ccc4c(c3)OC(F)(F)O4)(C1)C2 [Compound 379, 2-[(2,2-difluoro-2H-1,3-benzodioxol-5-yl)oxy]-N-{3-[2-(3,4-difluorophenoxy)acetamido]bicyclo[1.1.1]pentan-1-yl}acetamide] | < 0.01 µM
O=C(COc1ccc(Cl)c(F)c1)NC12CCC(NC(=O)COc3ccc4c(c3)OC(F)(F)O4)(C1)C2 [Compound 380, 2-(4-chloro-3-fluorophenoxy)-N-(4-{2-[(2,2-difluoro-2H-1,3-benzodioxol-5-yl)oxy]acetamido}bicyclo[2.1.1]hexan-1-yl)acetamide] | 0.01 to 0.05 µM
Cn1ccc(OCC(=O)NC23CC(NC(=O)COc4ccc(Cl)c(F)c4)(C2)C3)n1 [Compound 381, 2-(4-chloro-3-fluorophenoxy)-N-(3-{2-[(1-methyl-1H-pyrazol-3-yl)oxy]acetamido}bicyclo[1.1.1]pentan-1-yl)acetamide] | 0.5 to 2 µM
O=C(COc1ccc(Cl)c(F)c1)NC12CCC(NC(=O)COc3cnc(C(F)F)cn3)(CC1)[C@@H](O)C2 [Compound 382, 2-(4-chloro-3-fluorophenoxy)-N-[(3S)-4-(2-{[5-(difluoromethyl)pyrazin-2-yl]oxy}acetamido)-3-hydroxybicyclo[2.2.2]octan-1-yl]acetamide] | > 2 µM
O=C(COc1ccc2c(c1)OC(F)(F)O2)NC12CC(NC(=O)COc3cnc(C(F)F)cn3)(C1)C2 [Compound 383, 2-[(2,2-difluoro-2H-1,3-benzodioxol-5-yl)oxy]-N-[3-(2-{[5-(difluoromethyl)pyrazin-2-yl]oxy}acetamido)bicyclo[1.1.1]pentan-1-yl]acetamide] | > 2 µM
O=C(COc1ccc(Cl)c(F)c1)NC12CC(NC(=O)COc3cnc(C(F)F)cn3)(C1)C2 [Compound 384, 2-(4-chloro-3-fluorophenoxy)-N-[3-(2-{[5-(difluoromethyl)pyrazin-2-yl]oxy}acetamido)bicyclo[1.1.1]pentan-1-yl]acetamide] | > 2 µM
Cc1cc(OCC(=O)NC23CC(NC(=O)COc4ccc(Cl)c(F)c4)(C2)C3)n(C)n1 [Compound 385, 2-(4-chloro-3-fluorophenoxy)-N-(3-{2-[(1,3-dimethyl-1H-pyrazol-5-yl)oxy]acetamido}bicyclo[1.1.1]pentan-1-yl)acetamide] | 0.5 to 2 µM
O=C(CNC(=O)c1ccc(OC(F)(F)F)cn1)NC12CC(NC(=O)COc3ccc(Cl)c(F)c3)(C1)C2 [Compound 386, N-[2-({3-[2-(4-chloro-3-fluorophenoxy)acetamido]bicyclo[1.1.1]pentan-1-yl}amino)-2-oxoethyl]-5-(trifluoromethoxy)pyridine-2-carboxamide] | > 2 µM
N#CC1CC2(NC(=O)COc3ccc(Cl)c(F)c3)CCC1(NC(=O)COc1ccc(Cl)c(F)c1)CC2 (stereo not drawn) [Compound 387, N,N′-(2-cyanobicyclo[2.2.2]octane-1,4-diyl)bis[2-(4-chloro-3-fluorophenoxy)acetamide]] | < 0.01 µM
O=C(COc1ccc(C(F)F)cc1)NC12CC(NC(=O)COc3ccc(Cl)c(F)c3)(C1)C2 [Compound 388, 2-(4-chloro-3-fluorophenoxy)-N-(3-{2-[4-(difluoromethyl)phenoxy]acetamido}bicyclo[1.1.1]pentan-1-yl)acetamide] | 0.01 to 0.05 µM
O=C(COc1ccc(C(F)F)cc1)NC12CC(NC(=O)COc3ccc(C(F)F)cc3)(C1)C2 [Compound 389, N,N′-(bicyclo[1.1.1]pentane-1,3-diyl)bis{2-[4-(difluoromethyl)phenoxy]acetamide}] | 0.25 to 0.5 µM
O=C(COc1ccc(Cl)c(F)c1)NC12CCC(NC(=O)COc3ccc(Cl)c(F)c3)(CC1)C(C(=O)O)C2 (stereo not drawn) [Compound 390, 1,4-bis[2-(4-chloro-3-fluorophenoxy)acetamido]bicyclo[2.2.2]octane-2-carboxylic Acid] | 0.05 to 0.25 µM
O=C(COc1ccc2c(c1)OC(F)(F)O2)NC12CCC(NC(=O)COc3ccc4c(c3)OC(F)(F)O4)(C1)C2 [Compound 391, N,N′-(bicyclo[2.1.1]hexane-1,4-diyl)bis{2-[(2,2-difluoro-2H-1,3-benzodioxol-5-yl)oxy]acetamide}] | 0.25 to 0.5 µM
O=C(COc1cccc(OC(F)(F)F)c1)NC12CC(NC(=O)COc3ccc(Cl)c(F)c3)(C1)C2 [Compound 392, 2-(4-chloro-3-fluorophenoxy)-N-(3-{2-[3-(trifluoromethoxy)phenoxy]acetamido}bicyclo[1.1.1]pentan-1-yl)acetamide] | < 0.01 µM
O=C(COc1ccc(OC(F)(F)F)cc1)NC12CC(NC(=O)COc3ccc(Cl)c(F)c3)(C1)C2 [Compound 393, 2-(4-chloro-3-fluorophenoxy)-N-(3-{2-[4-(trifluoromethoxy)phenoxy]acetamido}bicyclo[1.1.1]pentan-1-yl)acetamide] | < 0.01 µM
Cc1cc(OCC(=O)NC23CCC(NC(=O)COc4ccc(Cl)c(F)c4)(CC2)C[C@@H]3O)cnc1C [Compound 394, 2-(4-chloro-3-fluorophenoxy)-N-[(3S)-4-{2-[(5,6-dimethylpyridin-3-yl)oxy]acetamido}-3-hydroxybicyclo[2.2.2]octan-1-yl]acetamide] | < 0.01 µM

Structure (SMILES) | EC50
Cc1cc(OCC(=O)NC23CCC(NC(=O)COc4ccc(Cl)c(F)c4)(CC2)C[C@@H]3O)cc(C)n1 [Compound 395, 2-(4-chloro-3-fluorophenoxy)-N-[(3S)-4-{2-[(2,6-dimethylpyridin-4-yl)oxy]acetamido}-3-hydroxybicyclo[2.2.2]octan-1-yl]acetamide] | 0.5 to 2 µM
O=C(COc1cccc(OC(F)F)c1)NC12CC(NC(=O)COc3ccc(Cl)c(F)c3)(C1)C2 [Compound 396, 2-(4-chloro-3-fluorophenoxy)-N-(3-{2-[3-(difluoromethoxy)phenoxy]acetamido}bicyclo[1.1.1]pentan-1-yl)acetamide] | 0.01 to 0.05 µM
O=C(COc1ccc(OC(F)F)cc1)NC12CC(NC(=O)COc3ccc(Cl)c(F)c3)(C1)C2 [Compound 397, 2-(4-chloro-3-fluorophenoxy)-N-(3-{2-[4-(difluoromethoxy)phenoxy]acetamido}bicyclo[1.1.1]pentan-1-yl)acetamide] | 0.01 to 0.05 µM
O=C(COc1ccccc1)NC12CC(NC(=O)COc3ccc(Cl)c(F)c3)(C1)C2 [Compound 398, 2-(4-chloro-3-fluorophenoxy)-N-[3-(2-phenoxyacetamido)bicyclo[1.1.1]pentan-1-yl]acetamide] | 0.01 to 0.05 µM
O=C(COc1ccc(C(F)F)nc1)NC12CC(NC(=O)COc3ccc(Cl)c(F)c3)(C1)C2 [Compound 399, 2-(4-chloro-3-fluorophenoxy)-N-[3-(2-{[6-(difluoromethyl)pyridin-3-yl]oxy}acetamido)bicyclo[1.1.1]pentan-1-yl]acetamide] | 0.01 to 0.05 µM
O=C(COc1ccc(C(F)(F)F)nc1)NC12CC(NC(=O)COc3ccc(C(F)(F)F)nc3)(C1)C2 [Compound 400, N,N′-(bicyclo[1.1.1]pentane-1,3-diyl)bis(2-{[6-(trifluoromethyl)pyridin-3-yl]oxy}acetamide)] | 0.05 to 0.25 µM
O=C(COc1ccc(Cl)c(Cl)c1)NC12CC(NC(=O)COc3ccccn3)(C1)C2 [Compound 401, 2-(3,4-dichlorophenoxy)-N-(3-{2-[(pyridin-2-yl)oxy]acetamido}bicyclo[1.1.1]pentan-1-yl)acetamide] | 0.01 to 0.05 µM
O=C(COc1ccc(Cl)c(F)c1)NC12CC(NC(=O)COc3ccccn3)(C1)C2 [Compound 402, 2-(4-chloro-3-fluorophenoxy)-N-(3-{2-[(pyridin-2-yl)oxy]acetamido}bicyclo[1.1.1]pentan-1-yl)acetamide] | 0.05 to 0.25 µM
O=C(COc1cccnc1)NC12CCC(NC(=O)COc3ccc(Cl)c(F)c3)(C1)C2 [Compound 403, 2-(4-chloro-3-fluorophenoxy)-N-(4-{2-[(pyridin-3-yl)oxy]acetamido}bicyclo[2.1.1]hexan-1-yl)acetamide] | 0.5 to 2 µM
O=C(COc1ccc(Cl)c(F)c1)NC12CCC(NC(=O)COc3ccccn3)(C1)C2 [Compound 404, 2-(4-chloro-3-fluorophenoxy)-N-(4-{2-[(pyridin-2-yl)oxy]acetamido}bicyclo[2.1.1]hexan-1-yl)acetamide] | 0.5 to 2 µM
O=C(COc1cccnc1)NC12CC(NC(=O)COc3ccc(Cl)c(Cl)c3)(C1)C2 [Compound 405, 2-(3,4-dichlorophenoxy)-N-(3-{2-[(pyridin-3-yl)oxy]acetamido}bicyclo[1.1.1]pentan-1-yl)acetamide] | 0.05 to 0.25 µM
O=C(COc1ccc(Cl)c(F)c1)NC12CC(NC(=O)COc3c(F)cc(F)cc3F)(C1)C2 [Compound 406, 2-(4-chloro-3-fluorophenoxy)-N-{3-[2-(2,4,6-trifluorophenoxy)acetamido]bicyclo[1.1.1]pentan-1-yl}acetamide] | 0.01 to 0.05 µM
CC(C)(O)c1ccc(OCC(=O)NC23CC(NC(=O)COc4ccc(Cl)c(F)c4)(C2)C3)cc1 [Compound 407, 2-(4-chloro-3-fluorophenoxy)-N-(3-{2-[4-(2-hydroxypropan-2-yl)phenoxy]acetamido}bicyclo[1.1.1]pentan-1-yl)acetamide] | 0.05 to 0.25 µM
O=C(COc1ccc(F)cc1)NC12CC(NC(=O)COc3ccc(Cl)c(F)c3)(C1)C2 [Compound 408, 2-(4-chloro-3-fluorophenoxy)-N-{3-[2-(4-fluorophenoxy)acetamido]bicyclo[1.1.1]pentan-1-yl}acetamide] | < 0.01 µM
O=C(COc1ccc(Cl)c(F)c1)NC12CC(NC(=O)COc3ccc(F)cc3F)(C1)C2 [Compound 409, 2-(4-chloro-3-fluorophenoxy)-N-{3-[2-(2,4-difluorophenoxy)acetamido]bicyclo[1.1.1]pentan-1-yl}acetamide] | < 0.01 µM
O=C(COc1cccc(F)c1)NC12CC(NC(=O)COc3ccc(Cl)c(F)c3)(C1)C2 [Compound 410, 2-(4-chloro-3-fluorophenoxy)-N-{3-[2-(3-fluorophenoxy)acetamido]bicyclo[1.1.1]pentan-1-yl}acetamide] | < 0.01 µM
